Assay: xn = mol fraction of the nth substance listed
Conditions: 100 kPa

O=S(=O)([N-]S(=O)(=O)C(F)(F)F)C(F)(F)F.[Li+] + OCCO
Conditions	electrical conductivity, 303 K [S/m]	electrical conductivity, 318.1 K [S/m]	electrical conductivity, 333 K [S/m]	viscosity, 303 K [mPa·s]	viscosity, 318.1 K [mPa·s]	viscosity, 333 K [mPa·s]
x1 = 0.143	0.129	0.296	0.516	18.14	12.79	8.55
x1 = 0.167	0.275	0.604	0.928	19.25	13.57	8.71
x1 = 0.2	0.305	0.738	1.2	21.4	14.53	10.21
x1 = 0.25	0.291	0.623	1.07	23.79	16.35	10.61
x1 = 0.333	0.281	0.559	0.88	30.24	18.69	11.02
x1 = 0.5	0.275	0.534	–	58.8	35.26	–

OCCO + O=S(=O)([N-]S(=O)(=O)C(F)(F)F)C(F)(F)F.[Li+]
x2 = 0
Conditions	viscosity [mPa·s]
303 K	13.53
318.1 K	9.59
333 K	7.47
